Results on 14 compounds are retold here after paper PMC6445164, “Primary mono- and bis-sulfonamides obtained via regiospecific sulfochlorination of N-arylpyrazoles: inhibition profile against a panel of human carbonic anhydrases” (Journal of Enzyme Inhibition and Medicinal Chemistry, 2017).

For one series, the target named is hCA IX. More on the design: method as in PMID 26160114. To be noted: Figure 2; cited from earlier work.
In a further series the target is hCA XII. More on the design: method as in PMID 26160114. The conditions noted are these: Figure 2; cited from earlier work.
Another series addresses hCA I (Homo sapiens, UniProt P00915). As to the kind of experiment: stopped-flow CA catalysed CO2 hydration assay, hCA I.
In a further series the target is hCA II (Homo sapiens, UniProt P00918). As to the kind of experiment: stopped-flow CA catalysed CO2 hydration assay, hCA II.
For the next series, the target named is hCA IV (Homo sapiens, UniProt P22748). As to the kind of experiment: stopped-flow CA catalysed CO2 hydration assay, hCA IV.
Chain of hCA IV (P22748 19-312): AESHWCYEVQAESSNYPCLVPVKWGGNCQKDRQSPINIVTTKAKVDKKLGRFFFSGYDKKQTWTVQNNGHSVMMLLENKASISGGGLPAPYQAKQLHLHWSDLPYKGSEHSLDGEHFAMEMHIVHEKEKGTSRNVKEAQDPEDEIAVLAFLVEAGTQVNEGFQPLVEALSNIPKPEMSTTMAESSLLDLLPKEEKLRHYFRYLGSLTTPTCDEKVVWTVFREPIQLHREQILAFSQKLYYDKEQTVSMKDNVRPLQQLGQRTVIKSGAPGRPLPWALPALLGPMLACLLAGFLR
A further series addresses hCA VII (Homo sapiens, UniProt P43166). As to the kind of experiment: stopped-flow CA catalysed CO2 hydration assay, hCA VII.

Like-named read-outs stand apart in the source and are kept apart here.

Chain of hCA VII (P43166 whole entry): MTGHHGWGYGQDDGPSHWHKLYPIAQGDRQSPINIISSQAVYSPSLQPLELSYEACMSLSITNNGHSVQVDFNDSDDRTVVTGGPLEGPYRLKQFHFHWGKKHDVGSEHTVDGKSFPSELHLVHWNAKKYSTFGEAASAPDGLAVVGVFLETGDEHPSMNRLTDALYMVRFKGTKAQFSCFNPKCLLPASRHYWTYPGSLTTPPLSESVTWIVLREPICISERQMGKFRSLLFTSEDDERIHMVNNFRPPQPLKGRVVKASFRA
Chain of hCA I (P00915 whole entry): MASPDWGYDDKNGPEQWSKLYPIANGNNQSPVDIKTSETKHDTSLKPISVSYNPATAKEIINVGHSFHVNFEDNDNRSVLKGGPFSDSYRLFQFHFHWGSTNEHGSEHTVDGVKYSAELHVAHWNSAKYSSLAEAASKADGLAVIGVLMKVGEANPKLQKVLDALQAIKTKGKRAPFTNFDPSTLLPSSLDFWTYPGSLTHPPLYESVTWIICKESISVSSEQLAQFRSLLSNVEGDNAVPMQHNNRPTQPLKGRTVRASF
Procedure for hCA II: (§1) An applied photophysics stopped-flow instrument has been used for assaying the CA catalysed CO2 hydration activity[21]. […] The CO2 concentrations ranged from 1.7 to 17 mM for the determination of the kinetic parameters and inhibition constants. […] The uncatalysed rates were determined in the same manner and subtracted from the total observed rates. Stock solutions of inhibitor (0.1 mM) were prepared in distilled-deionized water and dilutions up to 0.005 nM were done thereafter with the assay buffer. Inhibitor and enzyme solutions were preincubated together for 15 min at room temperature prior to assay, in order to allow for the formation of the E–I complex. The inhibition constants were obtained by non-linear least-squares methods using PRISM 3 and the Cheng–Prusoff equation, as reported earlier, and represent the mean from at least three different determinations. All CA isoforms were recombinant ones obtained in-house[22–25].
Procedure for hCA IV: as §1
Procedure for hCA VII: as §1

Turning to `NS(=O)(=O)c1ccc(-c2cnc(C(=O)N3CCCC3)o2)s1` [Compound 4], the Ki on hCA IX was 18.7 nM; at hCA XII, 6.7 nM.
Turning to `NS(=O)(=O)c1ccc(-n2cccn2)cc1` [Compound 7a, 4-(^1H-pyrazol-1-yl)benzenesulfonamide], the melting point is 323 to 325 °C. On hCA I, this compound displayed an inhibition constant Ki of 4.78 µM. This compound gave an inhibition constant Ki at hCA II of 0.072 µM. Also, the inhibition constant (Ki) at hCA IV was above 10 µM. The compound further displayed a Ki at hCA VII of 0.8 µM.
With `Cc1ccccc1-n1nc(C)c(S(N)(=O)=O)c1C` [Compound 8e, 3,5-Dimethyl-1-(2-methylphenyl)-^1H-pyrazole-4-sulfonamide], the melting point lay in the range of 161 to 163 °C. The compound also registered an inhibition constant Ki on hCA I of 0.6 µM. The same compound had a Ki at hCA II of 0.091 µM. The inhibitory constant (Ki) at hCA IV is above 10 µM. The compound also displayed an inhibition constant (Ki) on hCA VII above 10 µM.
In turn, `Cc1nn(-c2ccc(Cl)c(S(N)(=O)=O)c2)c(C)c1S(N)(=O)=O` [Compound 9m, 1-(4-Chloro-3-sulfamoylphenyl)-3,5-dimethyl-^1H-pyrazole-4-sulfonamide] showed a melting point of 241 to 243 °C. The compound also yielded a Ki at hCA I of 0.89 µM. This compound also had an inhibition constant (Ki) on hCA II of 0.04 µM. The same compound gave a Ki at hCA IV of 0.077 µM. At hCA VII, this compound had a Ki of 0.65 µM.
Compound `Cc1nn(-c2ccccc2)c(C)c1S(N)(=O)=O` [Compound 8b, 3,5-Dimethyl-1-phenyl-^1H-pyrazole-4-sulfonamide] displayed a melting point of 161 to 163 °C. The compound further yielded a Ki at hCA I of 0.54 µM. In addition, at hCA II, the Ki came to 0.28 µM. The inhibitory constant (Ki) on hCA IV was above 10 µM. For the same compound, at hCA VII, the affinity, expressed as Ki, was 0.53 µM.
For `COc1cc(-n2nc(C)c(S(N)(=O)=O)c2C)ccc1S(N)(=O)=O` [Compound 9k, 1-(3-Methoxy-4-sulfamoylphenyl)-3,5-dimethyl-^1H-pyrazole-4-sulfonamide] the same measures were 256 to 258 °C, 4.65 µM, 0.61 µM, above 10 µM and 0.17 µM.
Consider `Cc1cc(-n2nc(C)c(S(N)(=O)=O)c2C)ccc1S(N)(=O)=O` [Compound 9f, 3,5-Dimethyl-1-(3-methyl-4-sulfamoylphenyl)-^1H-pyrazole-4-sulfonamide], for which the melting point lay in the range of 143 to 146 °C. The compound further yielded an inhibitory constant (Ki) on hCA I of 0.47 µM. Moreover, affinity at hCA II was put at a Ki of 0.002 µM. Moreover, the affinity on hCA IV corresponds to a Ki of 0.022 µM. This compound had an inhibitory constant (Ki) on hCA VII of 0.019 µM.
Compound `Cc1ccc(S(N)(=O)=O)cc1-n1cc(S(N)(=O)=O)cn1` [Compound 9i, 1-(2-Methyl-5-sulfamoylphenyl)-^1H-pyrazole-4-sulfonamide] showed a melting point of 185 to 188 °C. The Ki on hCA I (read-out: hCA Ki (μM) hCA I, recombinant enzyme, stopped-flow CO2 hydration, 15 min preincubation, pH 8.3) was 0.55 µM. Further, the inhibition constant (Ki) on hCA II (read-out: hCA Ki (μM) hCA II, recombinant enzyme, stopped-flow CO2 hydration, 15 min preincubation, pH 8.3) was found to be 0.03 µM. For the same compound, the inhibition constant Ki on hCA IV (read-out: hCA Ki (μM) hCA IV, recombinant enzyme, stopped-flow CO2 hydration, 15 min preincubation, pH 8.3) is 7.86 µM. Besides, the Ki at hCA VII (read-out: hCA Ki (μM) hCA VII, recombinant enzyme, stopped-flow CO2 hydration, 15 min preincubation, pH 8.3) amounted to 0.014 µM.
In turn, `NS(=O)(=O)c1ccc(-n2cccn2)cc1Cl` [Compound 7m, 2-Chloro-4-(^1H-pyrazol-1-yl)benzenesulfonamide] showed a melting point of 181 to 183 °C. The same compound came in with an inhibition constant Ki on hCA I of 0.066 µM. The compound further had a Ki at hCA II of 0.085 µM. The compound further registered an inhibition constant Ki on hCA IV of 0.086 µM. The Ki on hCA VII is 0.328 µM.
For `Cc1ccc(-n2nc(C)c(S(N)(=O)=O)c2C)cc1` [Compound 8c, 3,5-Dimethyl-1-(4-methylphenyl)-^1H-pyrazole-4-sulfonamide] the same measures were 171 to 174 °C, 0.76 µM, 0.74 µM, above 10 µM and above 10 µM.
For `COc1ccc(S(N)(=O)=O)cc1-n1cccn1` [Compound 7l, 4-Methoxy-3-(^1H-pyrazol-1-yl)benzenesulfonamide], the melting point was 255 to 257 °C. This compound yielded a Ki on hCA I above 10 µM. Moreover, the inhibition constant (Ki) on hCA II is 6.65 µM. The inhibition constant Ki at hCA IV is above 10 µM. Besides, the inhibitory constant (Ki) at hCA VII is above 10 µM.
Regarding `Cc1nn(-c2cccc(S(N)(=O)=O)c2)c(C)c1S(N)(=O)=O` [Compound 9a, 3,5-Dimethyl-1-(3-sulfamoylphenyl)-^1H-pyrazole-4-sulfonamide], the melting point fell in the range of 223 to 225 °C. This compound also returned an inhibitory constant (Ki) on hCA I of 0.5 µM. The Ki at hCA II was determined as 0.021 µM. In addition, the affinity on hCA IV, expressed as Ki, was 0.065 µM. This compound gave a Ki on hCA VII of 0.26 µM.
For `Cc1cccc(-n2nc(C)c(S(N)(=O)=O)c2C)c1` [Compound 8d, 3,5-Dimethyl-1-(3-methylphenyl)-^1H-pyrazole-4-sulfonamide] the same measures were 174 to 176 °C, 0.27 µM, 0.24 µM, above 10 µM and 0.94 µM.
In turn, `COc1cc(-n2nc(C)cc2C)ccc1S(N)(=O)=O` [Compound 7i, 4-(3,5-Dimethyl-^1H-pyrazol-1-yl)-2-methoxybenzenesulfonamide] returned a melting point of 156 to 158 °C. This compound had a Ki at hCA I of 8.85 µM. Further, at hCA II, the inhibition constant (Ki) was above 10 µM. At hCA IV, this compound came in with an inhibition constant Ki above 10 µM. The compound further registered an inhibitory constant (Ki) at hCA VII above 10 µM.

A word on the Ki: it is a dissociation constant, usually derived from enzyme kinetics or from competition with a known ligand. One may read the melting point as the temperature, or range, at which the solid turns liquid.
